Three compounds from article PMC9849758, “Chemically diverse activity-based probes with unexpected inhibitory mechanisms targeting trypsin-like serine proteases” (Frontiers in Chemistry, 2023) can be followed below.

Entries after “also recorded” stand apart in the source; their conditions may differ.

The test concerns proteases in human mast cell supernatants. Briefly: Labeling of mast cell supernatants, functional proteomic profiling. To be noted: 1 µM ABP, 10 µg total protein, two donors, IgE/DNP stimulated and non-stimulated. How it is done:
Peripheral blood mononuclear cells (PBMCs) were obtained from buffy coats (Etablissement Français du Sang). CD34^+ precursors cells were isolated from PBMCs (EasySep™ Human CD34 Positive Selection Kit, STEMCELL Technologies) and grown under serum-free conditions using StemSpanTM medium (STEMCELL Technologies) supplemented with recombinant human IL-6 (50 ng/ml; Peprotech), human IL-3 (10 ng/ml; Peprotech) and 3% supernatant of CHO transfectants secreting murine SCF (a gift from Dr. P. Dubreuil, Marseille, France, 3% correspond to ∼50 ng/ml SCF) for 1 week. Cells were next grown in IMDM Glutamax I, sodium pyruvate, 2-mercaptoethanol, .5% BSA, Insulin-transferrin selenium (all from Invitrogen), penicillin (100 U/ml), streptomycin (100 μg/ml) and 3% supernatant of CHO transfectants secreting murine SCF for 8 weeks then tested phenotypically (CD117+, FcεRI+) and functionally (β-hexosaminidase release in response to FcεRI crosslinking) before use for experiments. Only primary cell lines showing more than 95% CD117+/FcεRI+ cells were used for experiments.
1 × 10^5 mast cells were distributed in 50 µl Tyrode’s Buffer and adapted to 37°C for 30 min. Mast cells were next stimulated with DNP-BSA (200 ng/ml) after sensitization with 1 μg/ml of IgE anti DNP (Sigma-Aldrich) overnight. Supernatants were harvested and stored at −80°C. (β-hexosaminidase was assayed by measuring the release of p-nitrophenol from the substrate p-nitrophenyl N-acetyl-β-D-glucosaminide).
Mast cell supernatants (10 µg of total protein) were labeled with 1 µM individual ABPs (46b, 52b, or 57b) in 50 mM Tris, 120 mM NaCl, .1 mg/ml BSA, 50 μg/ml heparin, pH 8 at 25°C (Sigma-Aldrich) in a final volume of 500 µL. […] The molecular weight of each band was determined with the Image Lab Software v5 (Bio-Rad) with Dual Color Protein Precision Plus Standard (10–250 kDa; Bio-Rad) as reference. […]
Regarding `C[C@@H]1NC(=O)N[C@@H]1CCCCCC(=O)NCCOCCOCCOCCn1cc(CCCOC(=O)NC(CCCNC(=N)N)P(=O)(Oc2ccc(Cl)cc2)Oc2ccc(Cl)cc2)nn1` (stereo partly drawn) [46b], the “labeling of proteases in mast cell supernatants” value (“labeling of proteases” below) is listed as “can label proteases in a complex proteome”. Consider `C[C@@H]1NC(=O)N[C@@H]1CCCCCC(=O)NCCOCCOCCOCCn1cc(CCCOC(=O)NC(Cc2ccc(NC(=N)N)cc2)P(=O)(Oc2ccc(Cl)cc2)Oc2ccc(Cl)cc2)nn1` (stereo partly drawn) [54b], for which the “labeling of proteases” value is reported as “can label proteases in a complex proteome; also recorded: best resolution”. On to `C[C@@H]1NC(=O)N[C@@H]1CCCCCC(=O)NCCOCCOCCOCCn1cc(CCCOC(=O)NC(c2ccc(NC(=N)N)cc2)P(=O)(Oc2ccc(Cl)cc2)Oc2ccc(Cl)cc2)nn1` (stereo partly drawn) [57b], for which the “labeling of proteases” value is on record as “can label proteases in a complex proteome”.
